Data on six compounds can be found in patent US20060035964A1, “Hypoglycemic agent, liver protecting agent and anticancer agent containing lignans originating in hongdoushan” (priority 2002, published 2006).

Converted amounts (≈) assume the structure as drawn. A value given as a limit tells only on which side of the number the result lay.

In assay [1] the test system is human HT-1080 fibrosarcoma cells. Nature of the assay: Antiproliferative activity against cultured cancer cells (MTT), HT-1080. Type of assay: cell-based. Conditions: for IC50: Homo sapiens, HT-1080, average of 4 wells. The method, then:
(§1) Compounds of lignans and hongdoushan fractions were tested for their antiproliferative activity against human HT-1080 fibrosarcoma cells and murine colon 26-L5 carcinoma cells. Human HT-1080 fibrosarcoma cells were cultured in the EMEM medium supplemented with 10% FCS (heat-inactivated fetal calf serum) and 0.1% sodium bicarbonate, and 2 mM glutamine. On the other hand, murine colon 26-L5 carcinoma cells were cultured in the RPMI medium containing the same supplements as in the EMEM medium. Cell viability was determined by means of MTT(3-(4,5-dimethylthiazol-2-yl)-2,5-[…] bromide).
(§2) The cells were cultured in a 96-well plate, which was supplemented with a cell suspension medium solution. In this case, each well had approximately 2,000 cells in 100 μL. The cells grew exponentially during the cultivation.
(§3) Twenty four hours later, when the cells adhered to the plate, the medium solution was removed, and then the cells were treated with a test compound medium solution (100 μL) at various concentrations (100 μg/mL, 50 μg/mL, 10 μg/mL, 5 μg/mL, and 1 μg/mL). The cells were cultured at 37° C. under 5% CO2. In this case, the test compounds were first dissolved in DMSO and then diluted in the medium. The concentration of DMSO was adjusted to be finally below 0.25%.
(§4) Next, the medium solution was removed, and the dissolved MTT (100 μL) was added to the medium. After three-hour incubation of the cells, the amount of the formazan formed was measured spectrophotometrically at 550 nm with a plate reader HTS-7000 (manufactured by Perkin Elmer).

Assay [2] relates to D-GalN/LPS-induced hepatic damage in mice. The experiment in a line: D-GalN/LPS-induced hepatic damage model. Type of assay: in vivo, mouse. As to conditions: for Histopathological observation of hepatic cells (apoptosis): 8 hours after the injection of D-GalN/LPS, compared with control group; for GOT level in blood serum / GPT level in blood serum / TNF-α level in blood serum: ddY mice, subcutaneous 10 mg/kg and 50 mg/kg; for GOT level in blood serum / GPT level in blood serum: 12 h and 1 h before D-GalN/LPS, measured 8 hours after injection; for TNF-α level in blood serum: measured 90 minutes after D-GalN/LPS injection, ELISA. As for the experimental part: Evaluation by D-galactosamine (hereinafter called “D-GalN”)/Lipopolysaccharide (hereinafter called “LPS”)-induced hepatic damage model (J. Wang et al., Biochem. Pharm., 39, 267 (1990), A. Wendel et al., Biochem. Pharm., 35, 2115 (1986))
Male mice of ddY strains (age: 6 weeks) kept fast for 12 hours, and then hepatic damage was induced in the mice by injecting D-GalN (700 mg/kg)/LPS (10 μg/kg) into their abdominal cavity. Test compounds were given subcutaneously to the mice 2 times: 12 hours and 1 hour before the injection of D-GalN/LPS. They were arranged into 2 groups which were given test compounds: a group in a dose of 50 mg/kg (weight of rat), and a group in a dose of 10 mg/kg (weight of rat). There were also a control group which was given normal saline solution and a group which was given silymarin, a known hepatoprotective agent, (subcutaneous administration in a dose of 100 mg/kg) for comparison of medicinal benefits.
Tumor necrosis factor alpha (hereinafter called “TNF-α”) level in the blood was measured 90 minutes after the injection of D-GalN/LPS. Furthermore, levels of GPT (glutamic-pyruvic transaminase) and GOT (glutamic oxaloacetic transaminase) in the blood were measured 8 hours after the injection.
TNF-α level was measured by means of the ELISA method using an anti-mouse TNF-α antibody (manufactured by Endogen, Inc., USA), and levels of GPT and GOT were measured by using a Transaminase CII-Test kit (manufactured by Wako Pure Chemical Industries, Ltd.).
The hepatic damage mechanism induced in this damage model is thought to have high correlativity with clinical results as a model of immunological hepatic damage outbreak because of a series of process such as activation of cells involved in immunity, infiltration into hepatic tissues, secretion of cytokine and autocoid such as leukotriene D4 and TNF-α, and apoptosis of hepatic cells.

The test system of assay [3] is primary cultured mouse hepatocytes. Nature of the assay: Inhibitory activity on TNF-α-induced cell death in primary cultured mouse hepatocytes (MTT). Type of assay: cell-based. As to conditions: D-galactosamine 0.5 mM + TNF-α 100 ng/mL; compounds at 200, 100, 50 and 10 μM; 18 hours; compared with Control. The method, then:
Hepatic parenchymal cells were separated from the lives of male mice of ddY strains by means of a collagenase recirculation method. The separated hepatic parenchymal cells were suspended in the William's E culture medium, which was supplemented with 10% calf blood serum, 100 IU/mL penicillin G, 100 µg/mL streptomycin, 100 μM dexamethasone, and 50 ng/mL insulin, and incubated in a 96-well plastic plate (1.5×10^4 cells/well). The culture medium was replaced with a fresh culture medium containing D-galactosamine (0.5 mM) and lignans after 2-hour pre-incubation. TNF-α (100 ng/mL) was added to each well 30 minutes later. The hepatocytes viability was assessed 18 hours later by means of MTT(3-(4,5-dimethylthiazol-2-yl)-2,5-[…] bromide) colorimetric reaction.
The vertical axis of the graph represents cell viability in percentage. The bar of Normal is cell viability in the TNF-α-untreated culture medium. The bar of Control is cell viability in the test compound-untreated culture medium.
TAX, HYL, SIL, and ITX were treated at 200 μM, 100 μM, 50 μM, and 10 μM in the culture medium. Cell viability of each item is shown in the bar graphs.

Assay [4] has as its system murine colon 26-L5 carcinoma cells. The experiment in a line: Antiproliferative activity against cultured cancer cells (MTT), colon 26-L5. Type of assay: cell-based. As to conditions: for IC50: Mus musculus, average of 4 wells. As for the experimental part:
as §1, §2, §3, §4

Assay [5] deals with diabetic rats induced by injecting STZ. Nature of the assay: Decrease activity in blood glucose level in STZ-induced diabetic rats. It is filed as in vivo, rat. Conditions: STZ diabetic Wistar rats; for Reduction of blood glucose level: 10 mg/kg into abdominal cavity 5 times at 12 h intervals (positive control: tolbutamide 200 mg/kg + buformin 1 mg/kg). The method, then: Activities of compounds of lignans and hongdoushan fractions in decreasing blood glucose level were assessed by using rats.
Blood serums were obtained after the blood cell separation of the whole blood samples collected from the rats. Measurement of the blood glucose level was carried out by using the blood serum, a Glucose CII-TEST WAKO (manufactured by Wako Pure Chemical Industries, Ltd.) as a reagent and a UV-160A (manufactured by Shimadzu Corporation) as an instrument for absorbance measurement.
Male rats of Wistar strains (age: 5-6 weeks, weight: 180-200 g) kept fast for 16 hours. Then, citrate buffer solution (pH 4.2) of streptozocin (hereinafter called “STZ”) was injected into the rats' abdominal cavity in a dose of 55 mg/kg (weight of rat). Blood samples were taken from the tail vein of the rats 5 days after the injection, to measure blood glucose level. Rats with blood glucose level higher than 250 mg/dL were considered to be diabetic and were used for the tests.
Compounds or fractions were injected into the abdominal cavity of the diabetic rats in a dose of 10 mg/kg (weight of rat) 5 times at intervals of 12 hours. Blood samples were taken from the tail veins of the rats to measure the blood glucose level. Averages and standard deviations of measured values were calculated for groups, each of which had 4 rats. The groups included a negative control group, which was given normal saline solution, and a positive control group of said diabetic rats, which were given a mixture of tolbutamide in a dose of 200 mg/kg (weight of rat) and buformin in a dose of 1 mg/kg (weight of rat) through their abdominal cavity.

A short description of assay [6]: DPPH free radical scavenging activity. Conditions: DPPH 60 μM ethanol solution, 30 minutes room temperature, absorbance 520 nm.
Procedure: 500 μL of each test compound dissolved in ethanol or aqueous solution was mixed with 500 μL of DPPH (1,1-diphenyl 1-2-picrylhydrazyl) ethanol solution (concentration: 60 μM). The mixtures were left at room temperature for 30 minutes, and then their absorbance was measured at 520 nm. The measurements were carried out for each test compound at different concentrations.

Regarding `COc1cc2c(cc1O)[C@H](c1ccc(O)c(O)c1)[C@@H](CO)[C@H](CO)C2` [ITX, Isotaxiresinol], in assay [1], the “Antiproliferative activity against HT-1080 (in words)” value is given as “showed antiproliferative activity” and half-maximal inhibition (IC50) required 43.8 µg/mL (≈ 126 µM). For the same compound, in assay [2], the “Histopathological observation of hepatic cells (apoptosis)” value is “less apoptosis corpuscles in the cells and less concentrated chromatins in the cell nucleuses”; the “GOT level in blood serum” value was “inhibit the increase”; the “GPT level in blood serum” value is “inhibit the increase”; the “TNF-α level in blood serum” value was “inhibit the increase”. Also, the Cell viability entry in assay [3] is “results similar to that of TAX”. Besides, in assay [4], the “Antiproliferative activity against Colon 26-L5 (in words)” value was “showed antiproliferative activity” and the concentration for half-maximal inhibition (IC50) is 36.5 µg/mL (≈ 105 µM). Moreover, the “Reduction of blood glucose level” value in assay [5] was found to be 23.6%.

Consider `COc1cc(C[C@@H](CO)[C@H](CO)Cc2ccc(O)c(OC)c2)ccc1O` [SIL, Secoisolariciresinol], for which, in assay [1], the “Antiproliferative activity against HT-1080 (in words)” value was “noticeable antiproliferative activity” and 5.9 µg/mL (≈ 16.3 µM) corresponded to half-maximal inhibition (IC50). Further, in assay [2], the “Histopathological observation of hepatic cells (apoptosis)” value is “less apoptosis corpuscles in the cells and less concentrated chromatins in the cell nucleuses”; the “GOT level in blood serum” value is “inhibit the increase”; the “GPT level in blood serum” value is recorded as “inhibit the increase”; the “TNF-α level in blood serum” value is given as “inhibit the increase”. Moreover, the Cell viability entry in assay [3] is “results similar to that of TAX”. This compound also had an IC50 in assay [4] of 60.2 µg/mL (≈ 166 µM). The “Reduction of blood glucose level” value in assay [5] is given as 33.4%.

For `COc1cc(C[C@H]2CO[C@H](c3ccc(O)c(O)c3)[C@H]2CO)ccc1O` [TAX, Taxiresinol], in assay [1], the “Antiproliferative activity against HT-1080 (in words)” value is reported as “showed antiproliferative activity” and the IC50 turned out to be 62.2 µg/mL (≈ 180 µM). Moreover, in assay [2], the “GOT level in blood serum” value is on record as “inhibit the increase”, the “GPT level in blood serum” value was “inhibit the increase” and the “TNF-α level in blood serum” value is reported as “inhibit the increase”. Further, the Cell viability entry in assay [3] is listed as “increased cell viability considerably in a dose-dependent manner”. In addition, in assay [4], the “Antiproliferative activity against Colon 26-L5 (in words)” value is recorded as “showed antiproliferative activity” and the IC50 was 35.2 µg/mL (≈ 102 µM). For the same compound, the “Reduction of blood glucose level” value in assay [5] is recorded as 20.9%. Further, the “Blood glucose level After administration” value in assay [5] (after 10 mg/kg into abdominal cavity 5 times at 12 h intervals (positive control: tolbutamide 200 mg/kg + buformin 1 mg/kg), mean ± SD) amounted to 250.2 ± 35.5 mg/dL. Also, the “Blood glucose level Before administration” value in assay [5] (before administration, mean ± SD, 4 rats) is 316.1 ± 19.9 mg/dL.

Consider `COc1cc([C@H]2OC[C@H]([C@@H](O)c3ccc(O)c(OC)c3)[C@@H]2CO)ccc1O` [HYL, (7′R)-7′-Hydroxylariciresinol], for which the IC50 in assay [1] is > 100 µg/mL. Besides, in assay [2], the “GOT level in blood serum” value is reported as “inhibit the increase”, the “GPT level in blood serum” value was “inhibit the increase” and the “TNF-α level in blood serum” value was “inhibit the increase”. Moreover, in assay [3], the Cell viability entry is listed as “results similar to that of TAX”. Moreover, the IC50 in assay [4] was > 100 µg/mL.

With `O=C(O)/C=C/c1ccc(O)c(O)c1` [Caffeic Acid], the “ED50 DPPH free radical scavenging” value in assay [6] is 5.41 µg/mL (≈ 30 µM).

In the case of `O=c1[nH]cc(F)c(=O)[nH]1` [5-Fluorouracil, reference compound], the IC50 in assay [1] was 0.29 µg/mL (≈ 2.23 µM); in assay [4] it was 0.07 µg/mL (≈ 0.538 µM).
